Laboratory results: ChEMBL document CHEMBL4270577, “Synthesis, anticancer activity and molecular modeling studies of 1,2,4-triazole derivatives as EGFR inhibitors” (Eur J Med Chem, 2018)
pIC50: −log10 of the molar value.

What was measured:
786-0 = test: Growth inhibition of human 786-0 cells at 10 uM incubated for 48 hrs by sulforhodamine B assay relative to control; format: functional; settings: 786-0, 48 h, read-out: GI
NCI-H322M = test: Growth inhibition of human NCI-H322M cells at 10 uM incubated for 48 hrs by sulforhodamine B assay relative to control; format: functional; settings: read-out: GI
MDA-MB-435 = test: Growth inhibition of human MDA-MB-435 cells at 10 uM incubated for 48 hrs by sulforhodamine B assay relative to control; format: functional; settings: MDA-MB-435, 48 h, read-out: GI
SK-MEL-28 = test: Growth inhibition of human SK-MEL-28 cells at 10 uM incubated for 48 hrs by sulforhodamine B assay relative to control; format: functional; settings: SK-MEL-28, 48 h, read-out: GI
NCI/ADR-RES = test: Growth inhibition of human NCI/ADR-RES cells at 10 uM incubated for 48 hrs by sulforhodamine B assay relative to control; format: functional; settings: read-out: GI
SNB-75 = test: Growth inhibition of human SNB75 cells at 10 uM incubated for 48 hrs by sulforhodamine B assay relative to control; format: functional; settings: SNB-75, 48 h, read-out: GI
HT-29 [1] = test: Antiproliferative activity against human HT-29 cells after 48 hrs by propidium iodide staining-based fluorometric analysis; format: functional, cell-based; settings: HT-29, 48 h
KM12 = test: Growth inhibition of human KM12 cells at 10 uM incubated for 48 hrs by sulforhodamine B assay relative to control; format: functional; settings: KM12, 48 h, read-out: GI
HT-29 [2] = test: Growth inhibition of human HT-29 cells at 10 uM incubated for 48 hrs by sulforhodamine B assay relative to control; format: functional; settings: HT-29, 48 h, read-out: GI
SF-539 = test: Growth inhibition of human SF539 cells at 10 uM incubated for 48 hrs by sulforhodamine B assay relative to control; format: functional; settings: SF-539, 48 h, read-out: GI
SF-295 = test: Growth inhibition of human SF295 cells at 10 uM incubated for 48 hrs by sulforhodamine B assay relative to control; format: functional; settings: SF-295, 48 h, read-out: GI
SNB-19 = test: Growth inhibition of human SNB19 cells at 10 uM incubated for 48 hrs by sulforhodamine B assay relative to control; format: functional; settings: SNB-19, 48 h, read-out: GI
PANC-1 = test: Antiproliferative activity against human PANC1 cells after 48 hrs by propidium iodide staining-based fluorometric analysis; format: functional, cell-based; settings: PANC-1, 48 h
SK-MEL-2 = test: Growth inhibition of human SK-MEL-2 cells at 10 uM incubated for 48 hrs by sulforhodamine B assay relative to control; format: functional; settings: SK-MEL-2, 48 h, read-out: GI
NCI-H23 = test: Growth inhibition of human NCI-H23 cells at 10 uM incubated for 48 hrs by sulforhodamine B assay relative to control; format: functional; settings: NCI-H23, 48 h, read-out: GI
MDA-MB-468 = test: Growth inhibition of human MDA-MB-468 cells at 10 uM incubated for 48 hrs by sulforhodamine B assay relative to control; format: functional; settings: MDA-MB-468, 48 h, read-out: GI
T47D = test: Growth inhibition of human T47D cells at 10 uM incubated for 48 hrs by sulforhodamine B assay relative to control; format: functional; settings: read-out: GI
HCT-116 = test: Growth inhibition of human HCT116 cells at 10 uM incubated for 48 hrs by sulforhodamine B assay relative to control; format: functional; settings: HCT-116, 48 h, read-out: GI
SF-268 = test: Growth inhibition of human SF268 cells at 10 uM incubated for 48 hrs by sulforhodamine B assay relative to control; format: functional; settings: SF-268, 48 h, read-out: GI
EKVX = test: Growth inhibition of human EKVX cells at 10 uM incubated for 48 hrs by sulforhodamine B assay relative to control; format: functional; settings: read-out: GI
M14 = test: Growth inhibition of human M14 cells at 10 uM incubated for 48 hrs by sulforhodamine B assay relative to control; format: functional; settings: M14, 48 h, read-out: GI
BT-549 = test: Growth inhibition of human BT549 cells at 10 uM incubated for 48 hrs by sulforhodamine B assay relative to control; format: functional; settings: BT-549, 48 h, read-out: GI
RXF 393 = test: Growth inhibition of human RXF393 cells at 10 uM incubated for 48 hrs by sulforhodamine B assay relative to control; format: functional; settings: RXF 393, 48 h, read-out: GI
OVCAR-4 = test: Growth inhibition of human OVCAR4 cells at 10 uM incubated for 48 hrs by sulforhodamine B assay relative to control; format: functional; settings: OVCAR-4, 48 h, read-out: GI
HOP-62 = test: Growth inhibition of human HOP62 cells at 10 uM incubated for 48 hrs by sulforhodamine B assay relative to control; format: functional; settings: HOP-62, 48 h, read-out: GI
OVCAR-3 = test: Growth inhibition of human OVCAR3 cells at 10 uM incubated for 48 hrs by sulforhodamine B assay relative to control; format: functional; settings: OVCAR-3, 48 h, read-out: GI

Structure (SMILES) | inhibition of growth at 10 µM (NCI-H322M) | inhibition of growth at 10 µM (NCI/ADR-RES) | inhibition of growth at 10 µM (SNB-75) | pIC50 (HT-29 [1]) | inhibition of growth at 10 µM (KM12) | inhibition of growth at 10 µM (HT-29 [2]) | inhibition of growth at 10 µM (SNB-19) | pIC50 (PANC-1) | inhibition of growth at 10 µM (SK-MEL-2) | inhibition of growth at 10 µM (NCI-H23) | inhibition of growth at 10 µM (MDA-MB-468) | inhibition of growth at 10 µM (T47D) | inhibition of growth at 10 µM (HCT-116) | inhibition of growth at 10 µM (SF-268) | inhibition of growth at 10 µM (EKVX) | inhibition of growth at 10 µM (M14) | inhibition of growth at 10 µM (RXF 393) | inhibition of growth at 10 µM (OVCAR-4) | inhibition of growth at 10 µM (HOP-62) | also measured
COc1cc(-c2nc3sc(-c4ccccc4)cn3n2)cc(OC)c1OC | 7% | 39% | 24% | 5.31 | 14% | 18% | 10% | 5.31 | 20% | 17% | 35% | 55% | 40% | 9% | 63% | 25% | 17% | 17% | 15% | inhibition of growth at 10 µM (786-0): 14%; inhibition of growth at 10 µM (MDA-MB-435): 16%; inhibition of growth at 10 µM (SK-MEL-28): 4%; inhibition of growth at 10 µM (SF-539): 15%; inhibition of growth at 10 µM (SF-295): 16%; inhibition of growth at 10 µM (BT-549): 18%
c1ccc(-c2nc3sc(-c4ccccc4)cn3n2)cc1 | 11% | 14% | 15% | 5.08 | 18% | 9% | 11% | 5.14 | 5% | 16% | 14% | 63% | 11% | 7% | 21% | 13% | 9% | 23% | 33% | inhibition of growth at 10 µM (OVCAR-3): 16%
